27 molecules from patent US9957271B2, “Substituted bicyclic aza-heterocycles and analogues as sirtuin modulators” (GlaxoSmithKline, LLC, priority 2012, dated 2018) can be followed below.

Assay [1] concerns the target T1, SIRT1 (Homo sapiens, UniProt Q96EB6).
T1 sequence (Q96EB6 1-747): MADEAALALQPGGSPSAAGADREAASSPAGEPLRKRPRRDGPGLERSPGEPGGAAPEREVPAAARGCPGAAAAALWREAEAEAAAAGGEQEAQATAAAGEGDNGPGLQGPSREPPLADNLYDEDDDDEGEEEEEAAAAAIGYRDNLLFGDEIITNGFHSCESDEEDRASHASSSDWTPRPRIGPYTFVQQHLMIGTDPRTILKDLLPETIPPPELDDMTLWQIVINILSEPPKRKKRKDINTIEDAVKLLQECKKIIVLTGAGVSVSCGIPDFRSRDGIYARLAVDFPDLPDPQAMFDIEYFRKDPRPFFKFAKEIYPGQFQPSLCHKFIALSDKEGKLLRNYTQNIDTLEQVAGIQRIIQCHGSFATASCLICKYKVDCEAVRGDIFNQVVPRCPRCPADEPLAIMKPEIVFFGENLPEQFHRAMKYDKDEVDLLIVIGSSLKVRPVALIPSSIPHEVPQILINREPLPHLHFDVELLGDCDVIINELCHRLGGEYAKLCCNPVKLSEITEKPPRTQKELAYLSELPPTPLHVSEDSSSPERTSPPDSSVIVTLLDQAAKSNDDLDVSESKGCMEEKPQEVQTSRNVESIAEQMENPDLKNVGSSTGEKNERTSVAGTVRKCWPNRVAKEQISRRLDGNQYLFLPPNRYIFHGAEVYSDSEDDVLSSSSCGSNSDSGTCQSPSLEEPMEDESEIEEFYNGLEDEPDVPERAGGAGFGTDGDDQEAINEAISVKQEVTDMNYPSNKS
The experiment in a line: Trp mass spectrometry assay of SIRT1 activity. Type of assay: biochemical. Particulars: Trp assay; for Trp EC1.5 (μM): concentration giving 150% activation of SIRT1; for Emax: percent maximum fold activation, read-out: Trp % Fold Act. The method, boiled down: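 Activation readout: EC1.5 (concentration raising activity 50% over control) and percent maximum activation, from mass-spec quantitation of OAADPR or deacetylated Trp peptide. Reaction: 0.5 μM acetylated Trp peptide, 120 μM βNAD+, 10 nM bacterially expressed N-His SIRT1, pH 7.5 HEPES buffer with […], 25 min at 25° C.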

In assay [2] the target is T1, SIRT1. The experiment in a line: TAMRA based mass spectrometry assay of SIRT1 activity. Type of assay: biochemical. Particulars: TAMRA assay; for TAMRA EC1.5 (μM): concentration giving 150% activation of SIRT1; for Emax: percent maximum fold activation, read-out: TAMRA % Fold Act. Put shortly: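 Deacetylation of a biotinylated, TAMRA-tagged p53-based peptide (0.5 μM) by 10 nM His-tagged SIRT1 with 120 μM βNAD+, 25 °C for 25 min, pH 8 Tris-acetate buffer, across a compound concentration range. Quenched by formic acid and read by mass spec as product peptide or OAADPR; activity relative to DMSO reactions, nicotinamide defining maximal inhibition.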

Each structure is given as a SMILES string. Bounds are passed on as bounds.

As for `Cc1cnc(NC(=O)c2c(C)nn3ccc(-c4ccccc4C(F)(F)F)nc23)cn1` [Compound 710], in assay [1], the “Trp EC1.5 (μM)” value is reported as “A (EC1.5<1 μM)” and the Emax was no less than 350%. For the same molecule, in assay [2], the “TAMRA EC1.5 (μM)” value is listed as “A (EC1.5<1 μM)” and the Emax is no less than 350%.
On to `Cc1nc(C(=O)Nc2cnn3ccc(-c4ccccc4OC(F)(F)F)nc23)c(C)s1` [Compound 713], for which, in assay [1], the “Trp EC1.5 (μM)” value is reported as “B (EC1.5 1-25 μM)” and the Emax was less than 350%. In assay [2], the “TAMRA EC1.5 (μM)” value is given as “B (EC1.5 1-25 μM)” and the Emax was no less than 350%.
Turning to `Cc1ccc(NC(=O)c2c(C)nc3ccc(-c4cccc(F)c4)nn23)nn1` [Compound 716], in assay [1], the “Trp EC1.5 (μM)” value is on record as “A (EC1.5<1 μM)” and the Emax is less than 350%. Besides, in assay [2], the “TAMRA EC1.5 (μM)” value is given as “B (EC1.5 1-25 μM)” and the Emax was less than 350%.
Consider `COc1ccc(NC(=O)c2c(C)nc3ccc(-c4cccc(OC(F)(F)F)c4)nn23)nn1` [Compound 718], for which, in assay [1], the “Trp EC1.5 (μM)” value is listed as “C (EC1.5>25 μM)” and the Emax was less than 350%. Further, in assay [2], the “TAMRA EC1.5 (μM)” value was “A (EC1.5<1 μM)” and the Emax was less than 350%.
Consider `Cc1cccnc1NC(=O)c1c(C)nn2ccc(-c3ccccc3C(F)(F)F)nc12` [Compound 722, 2-methyl-N-(3-methylpyridin-2-yl)-5-(2-(trifluoromethyl)phenyl)pyrazolo[1,5-a]pyrimidine-3-carboxamide], for which, in assay [1], the “Trp EC1.5 (μM)” value is given as “A (EC1.5<1 μM)” and the Emax is no less than 350%. Besides, in assay [2], the “TAMRA EC1.5 (μM)” value is on record as “B (EC1.5 1-25 μM)” and the Emax is less than 350%.
Take `Cc1cnc(NC(=O)c2cnn3ccc(-c4ccccc4C(F)(F)F)nc23)c(C)n1` [Compound 724]: in assay [1], the “Trp EC1.5 (μM)” value is given as “B (EC1.5 1-25 μM)” and the Emax was less than 350%. Further, in assay [2], the “TAMRA EC1.5 (μM)” value is “C (EC1.5>25 μM)” and the Emax was less than 350%.
For the molecule `Cc1cccc(C(=O)Nc2cnn3ccc(-c4ccccc4OC(F)(F)F)nc23)n1` [Compound 725], in assay [1], the “Trp EC1.5 (μM)” value is on record as “B (EC1.5 1-25 μM)” and the Emax was less than 350%. Further, in assay [2], the “TAMRA EC1.5 (μM)” value was “A (EC1.5<1 μM)” and the Emax was no less than 350%.
The corresponding values for `CC(C)c1nccc(C(=O)Nc2cnn3ccc(-c4ccccc4OC(F)(F)F)nc23)n1` [Compound 728] are “C (EC1.5>25 μM)”, less than 350%, “A (EC1.5<1 μM)” and no less than 350%.
`Cc1nc2c(C)cc(-c3ccccc3C(F)(F)F)nn2c1C(=O)Nc1ccnc(C(C)C)n1` [Compound 730]: in assay [1], the “Trp EC1.5 (μM)” value is given as “A (EC1.5<1 μM)” and the Emax is no less than 350%. In assay [2], the “TAMRA EC1.5 (μM)” value was “A (EC1.5<1 μM)” and the Emax is no less than 350%.
Turning to `Cc1nc2c(C)cc(-c3ccccc3C(F)(F)F)nn2c1C(=O)Nc1ccnc(C(C)(C)C)n1` [Compound 731], in assay [1], the “Trp EC1.5 (μM)” value is reported as “A (EC1.5<1 μM)” and the Emax is less than 350%. For the same molecule, in assay [2], the “TAMRA EC1.5 (μM)” value is “A (EC1.5<1 μM)” and the Emax is no less than 350%.
In the case of `Cc1cnc(C(=O)Nc2cnn3ccc(-c4ccccc4OC(F)(F)F)nc23)cn1` [Compound 734], in assay [1], the “Trp EC1.5 (μM)” value is “C (EC1.5>25 μM)” and the Emax is less than 350%. Also, in assay [2], the “TAMRA EC1.5 (μM)” value is “B (EC1.5 1-25 μM)” and the Emax was no less than 350%.
Consider `Cc1cc(C)nc(C(=O)Nc2cnn3ccc(-c4ccccc4OC(F)(F)F)nc23)n1` [Compound 736], for which, in assay [1], the “Trp EC1.5 (μM)” value is “C (EC1.5>25 μM)” and the Emax was less than 350%. Further, in assay [2], the “TAMRA EC1.5 (μM)” value was “A (EC1.5<1 μM)” and the Emax is no less than 350%.
The corresponding values for `Cc1cncc(NC(=O)c2c(C)nn3ccc(-c4ccccc4C(F)(F)F)nc23)n1` [Compound 737] are “A (EC1.5<1 μM)”, no less than 350%, “A (EC1.5<1 μM)” and no less than 350%.
The corresponding values for `Cc1ccc(NC(=O)c2c(C)nc3ccc(-c4ccccc4Cl)nn23)nn1` [Compound 742] are “C (EC1.5>25 μM)”, less than 350%, “A (EC1.5<1 μM)” and less than 350%.
`COc1ccc(NC(=O)c2c(C)nc3ccc(-c4ccccc4Cl)nn23)nn1` [Compound 743]: in assay [1], the “Trp EC1.5 (μM)” value is “C (EC1.5>25 μM)” and the Emax is less than 350%. In assay [2], the “TAMRA EC1.5 (μM)” value was “B (EC1.5 1-25 μM)” and the Emax is less than 350%.
Turning to `Cc1cccnc1C(=O)Nc1cnn2ccc(-c3ccccc3C(F)(F)F)nc12` [Compound 746], in assay [1], the “Trp EC1.5 (μM)” value was “C (EC1.5>25 μM)” and the Emax was less than 350%. Also, in assay [2], the “TAMRA EC1.5 (μM)” value was “A (EC1.5<1 μM)” and the Emax was no less than 350%.
Consider `O=C(Nc1cnn2ccc(-c3ccccc3C(F)(F)F)nc12)c1cccc(-n2cnnc2)n1` [Compound 748], for which, in assay [1], the “Trp EC1.5 (μM)” value is “B (EC1.5 1-25 μM)” and the Emax was less than 350%. Further, in assay [2], the “TAMRA EC1.5 (μM)” value was “A (EC1.5<1 μM)” and the Emax is no less than 350%.
On to `O=C(Nc1cnn2ccc(-c3ccccc3C(F)(F)F)nc12)c1ncc(F)cc1F` [Compound 749], for which, in assay [1], the “Trp EC1.5 (μM)” value is listed as “B (EC1.5 1-25 μM)” and the Emax is less than 350%. Further, in assay [2], the “TAMRA EC1.5 (μM)” value is on record as “A (EC1.5<1 μM)” and the Emax was no less than 350%.
The corresponding values for `Cc1nc(C(=O)Nc2cnn3ccc(-c4ccccc4OC(F)(F)F)nc23)cs1` [Compound 752] are “B (EC1.5 1-25 μM)”, less than 350%, “B (EC1.5 1-25 μM)” and no less than 350%.
The corresponding values for `O=C(Nc1cnn2ccc(-c3ccccc3OC(F)(F)F)nc12)c1ncccc1F` [Compound 754] are “B (EC1.5 1-25 μM)”, less than 350%, “A (EC1.5<1 μM)” and no less than 350%.
The corresponding values for `O=C(Nc1cnn2ccc(-c3ccccc3OC(F)(F)F)nc12)c1ncc(F)cc1F` [Compound 755] are “B (EC1.5 1-25 μM)”, less than 350%, “A (EC1.5<1 μM)” and no less than 350%.
Regarding `COc1ccc(NC(=O)c2c(C)nc3ccc(-c4cccc(F)c4)nn23)nn1` [Compound 761], in assay [1], the “Trp EC1.5 (μM)” value is on record as “A (EC1.5<1 μM)” and the Emax is less than 350%. Moreover, in assay [2], the “TAMRA EC1.5 (μM)” value is reported as “C (EC1.5>25 μM)” and the Emax was less than 350%.
Regarding `Cc1cccc(-c2ccc3nc(C)c(C(=O)Nc4cccnn4)n3n2)c1` [Compound 766], in assay [1], the “Trp EC1.5 (μM)” value was “A (EC1.5<1 μM)” and the Emax was less than 350%. Further, in assay [2], the “TAMRA EC1.5 (μM)” value was “A (EC1.5<1 μM)” and the Emax is less than 350%.
On to `Cc1nc2ccc(-c3cccc(F)c3)nn2c1C(=O)Nc1cccnn1` [Compound 767], for which, in assay [1], the “Trp EC1.5 (μM)” value is reported as “A (EC1.5<1 μM)” and the Emax was no less than 350%. Moreover, in assay [2], the “TAMRA EC1.5 (μM)” value is “B (EC1.5 1-25 μM)” and the Emax was less than 350%.
The corresponding values for `O=C(Nc1cnn2ccc(-c3ccccc3OC(F)(F)F)nc12)c1nc(C(F)(F)F)cs1` [Compound 770] are “C (EC1.5>25 μM)”, less than 350%, “B (EC1.5 1-25 μM)” and no less than 350%.
For the molecule `Cc1nc2ccc(-c3cccc(OC[C@H](O)CO)c3)nn2c1C(=O)Nc1ccccn1` [Compound 772, (R)-6-(3-(2,3-dihydroxypropoxy)phenyl)-2-methyl-N-(pyridin-2-yl)imidazo[1,2-b]pyridazine-3-carboxamide], in assay [1], the “Trp EC1.5 (μM)” value is “B (EC1.5 1-25 μM)” and the Emax is no less than 350%. Moreover, in assay [2], the “TAMRA EC1.5 (μM)” value is listed as “B (EC1.5 1-25 μM)” and the Emax was no less than 350%.
As to `Cc1nc2c(OC[C@H](O)CO)cc(-c3ccccc3C(F)(F)F)nn2c1C(=O)Nc1cccnn1` [Compound 773, (R)-8-(2,3-dihydroxypropoxy)-2-methyl-N-(pyridazin-3-yl)-6-(2-(trifluoromethyl)phenyl)imidazo[1,2-b]pyridazine-3-carboxamide], in assay [1], the “Trp EC1.5 (μM)” value is “A (EC1.5<1 μM)” and the Emax is no less than 350%. Moreover, in assay [2], the “TAMRA EC1.5 (μM)” value is “A (EC1.5<1 μM)” and the Emax is no less than 350%.
